Reference: patent publication US7763612B2, “Therapeutic amine-arylsulfonamide conjugate compounds” (Algebra, Inc., priority 2006, dated 2010)
Like-named read-outs stand apart in the source and are kept apart here.

How the values were obtained:
[1] = system: tetrabenazine-induced behavioral effects; test: Antitetrabenazine activity in the mouse (prevention of tetrabenazine-induced behavioral effects); type: in vivo; settings: for ED50: Mus musculus, ip, read-out: ED50 (mg/kg i.p.), antitetrabenazine activity
Description: Substances having an antidepressant action antagonize a number of the behavioral effects induced by tetrabenazine including locomotor activity, ptosis and hypothermia. Tetrabenazine-induced behavioral effects can be quantified using a composite index, X, where X=(1−ptosis score)/(activity score*[Temp., treated/Temp., control]) as described by Cooper, B. R., J. L. Howard, and F. E. Soroko, Animal models used in prediction of antidepressant effects in man, Journal of Clinical Psychiatry 44:63-6, 1983). 50% effective dose (ED50) values indicate a dose of compound with ‘antitetrabenazine activity’ at which the composite index, X, induced by 20 mg/kg of tetrabenazine intraperitoneally is reduced 50%.
Prevention of tetrabenazine-induced behavioral effects were measured using a modification of the method of Vernier et al., First Hahnemann Symposium on Psychosomatic Medicine, ed. Nodim and Moyer, pub Lea and Febiger, Philadelphia 1962 as described previously (Cooper, B. R., J. L. Howard, and F. E. Soroko, Animal models used in prediction of antidepressant effects in man, Journal of Clinical Psychiatry 44:63-6, 1983). Mice, groups of 12 CD1 males each, were injected intraperitoneally (i.p.) with the compounds (1420), (20a) and furosemide (10) suspended in a 0.5% 4000-centipoise methyl cellulose solution at 3 mg/mL or vehicle. All injections were administered at a vehicle volume of 10 ml/kg. The 50% effective dose (ED50) of each compound was determined by linear regression analysis of log probit plots of dose effect curves and is reported in Table 3: […]

Mice, CD1 males = test: Safety and toxicity dose-ranging study, observation for seizures and deaths after oral administration; type: in vivo, mouse; settings: CD1 male mice, p.o., doses up to 300 mg/kg, observed for one hour
Procedure: Safety and Toxicity: Dose-ranging studies were performed to determine the range of safe doses for compound (1420). […] Mice, groups of 6 CD1 males each, were administered compound suspended in a 0.5% 4000-centipoise methyl cellulose vehicle at a volume of 10 mL/kg p.o. using a 22-gauge stainless steel mouse feeding tube and 1-mL syringe at doses up to 300 mg/kg.

[2] = CD1 male mice, i.p., dose at which composite index X induced by 20 mg/kg tetrabenazine i.p. is reduced 50%

SMILES | ED50 [1, 2] [mg/kg] | inhibition of tetrabenazine-induced behavioral effects ([1]; CD1 male mice, i.p.) | serious adverse events (seizures and deaths) (Mice, CD1 males) | ED50 [1] [mg/kg]
NS(=O)(=O)c1cc(C(=O)O)c(NCc2ccco2)cc1Cl [furosemide, 5-(aminosulfonyl)-4-chloro-2-[(2-furanylmethyl)amino]benzoic acid] | > 30 |  |  | 
C[C@@H]1CO[C@@](O)(c2cc(F)cc(F)c2)[C@H](C)N1C(=O)OCOC(=O)c1cc(S(N)(=O)=O)c(Cl)cc1NCc1ccco1 [compound 1420, (2S,3S,5R)-4-[5-(aminosulfonyl)-4-chloro-2-[(2-furanylmethyl)amino]benzoyloxymethoxycarbonyl]-2-(3,5-difluorophenyl)-3,5-dimethyl-2-morpholinol] | 3.6 | inhibited tetrabenazine-induced behavioral effects | No seizures or deaths were observed in any animals at any dose | 
C[C@@H]1CO[C@@](O)(c2cc(F)cc(F)c2)[C@H](C)N1 [20a, (2S,3S,5R)-2-(3,5-difluorophenyl)-2-hydroxy-3,5-dimethylmorpholine] |  | inhibited tetrabenazine-induced behavioral effects |  | 0.2
